Test results reported in paper PMC5532403, “Potential for a novel manganese porphyrin compound as adjuvant canine lymphoma therapy” (Cancer Chemotherapy and Pharmacology, 2017).
Where “and” joins values, the source holds several entries; their conditions need not be identical. Equal entries are not always repeated. Entries after “also recorded” stand apart in the source; their conditions may differ. Where two headings read alike, the source gives them in different places.

Legend:
[1] = parameters: method as in PMID 27098749; conditions: non-human primates, 1 mg/kg; cited from earlier work
normal dogs [2] = assay: Maximally tolerated dose / single-dose safety monitoring (pulse, blood pressure, drug reactions); assay type: in vivo, dog; conditions: for average heart rate at peak: 1 h after injection
Description: (§1) Safety was assessed by evaluation of standard physical and laboratory parameters of systemic health. A full physical examination was performed prior to initiation of the study and on each treatment and sampling day. Indirect blood pressure monitoring was performed using Cardell Vet Monitor 9401 Blood Pressure Monitor. Pulse was quantified as heart beats per minute according to manual counts, as well as quantified with a blood pressure monitor. There was good correlation between pulse rates counted with manual methods compared to the blood pressure monitor (Figure S1). Standard laboratory assessments (complete blood cell count, biochemistry panel, urinalysis) were repeated throughout the phases of the study to assess systemic health.
Thus, 1 mg/kg was selected as a safe initial dose for the MTD and single-dose PK studies in this work.

normal dogs [3] = assay: Laboratory health assessments (complete blood cell count, biochemistry panel, urinalysis); assay type: in vivo, dog
Description: as §1

[4] = mice, cited from earlier work
[5] = Multiple dose pharmacokinetic study, plasma MnBuOE; assay type: in vivo, dog
Description: MnBuOE was administered at 0.25 mg/kg Monday, Wednesday, and Friday (MWF). Dogs were treated concurrently with diphenhydramine (2 mg/kg every 12 h), famotidine (0.5 mg/kg every 12 h), and prednisone (1 mg/kg every 12 h) throughout these studies. Blood/plasma was collected at two time points: 1 h post dose (expected high levels but “safely” away the peak at C max = 0.5 h) and just prior to injection (trough level). The results are presented on Fig. 4a. As expected, the trough levels measured were very low. […] This would imply that no change in the expected mild acute side effects should be observed. […] The change in pulse increased over time for both treatment week and day of the week. Baseline pulse prior to injection was not altered with multiple doses of MnBuOE.

normal dogs [6] = assay: Histopathologic evaluation of necropsy tissues; assay type: in vivo, dog; conditions: 0.25 mg/kg Mon/Wed/Fri five doses
Description: Tissue samples collected at necropsy were stored in 10% neutral buffered formalin, paraffin embedded, sectioned, and stained with hematoxylin and eosin. Histopathologic evaluations of the tissues were performed by a veterinary pathologist (KGB).

nonhuman primates = system: nonhuman primates; parameters: method as in PMID 27098749; conditions: sc every 3 days for 5 weeks; cited from earlier work
mice = system: mice; parameters: method as in PMID 27098749; conditions: sc every 3 days for 5 weeks; cited from earlier work
[7] = Single-dose pharmacokinetic study, plasma MnBuOE by LC-MS/MS; assay type: in vivo, dog
Description: Intravenous catheters were placed in the jugular vein of each dog under heavy sedation (dexmedetomidine, 500 mcg/m^2) 24-h prior to initiation of the pharmacokinetic study to facilitate blood sampling. Baseline pulse and blood pressure (Cardell Vet Monitor 9401 Blood Pressure Monitor) were recorded prior administration of MnBuOE. MnBuOE (5.64 mg/mL) was injected subcutaneously in the dorsal intrascapular region. Following injection, 3–6 mL of blood was collected after 10 min, 30 min, 1 h, 2 h, 4 h, 6 h, 8 h, 24 h, 48 h, 72 h, 7 days, and 14 days into lithium heparin tubes (Vacutainer, 1.3 mL). Whole blood was centrifuged at 1500×g for 20 min, and plasma was collected and stored in 1% citric acid at −80 °C.
Relevant PK parameters (e.g. C max, T max, AUC, clearance, t 1/2) were obtained by compartmental and non-compartmental modules within WinNonlin v. Plasma MnBuOE levels peaked at 30 min post-injection with a mean concentration of 3.993 μM (Fig. 2a), followed by a complex tissue distribution profile (non-linear trace in log-linear plot) within first 6 h post injection (Fig. 2a). […] Compartmental (first-order absorption—2 compartment model) calculations including 0–48 h data were performed on the averaged PK profile for the purpose of obtaining PK parameters needed for the simulation of the multi-dose regimen.

[8] = parameters: method as in unpublished data; conditions: rats, 1 mg/kg; ref unpublished data; cited from earlier work
normal dogs [9] = assay: Pulse monitoring in multiple dose study; assay type: in vivo, dog; conditions: 0.25 mg/kg sc Mon/Wed/Fri
Description: as §1

[10] = system: murine lymphoma cell lines; parameters: method as in PMID 19549914, PMID 25725417; conditions: in vitro; cited from earlier work
[11] = system: primary human lymphoma samples; parameters: method as in PMID 19549914, PMID 25725417; conditions: ex vivo; cited from earlier work
[12] = parameters: method as in PMID 26496207; conditions: cited from earlier work
[13] = 3 weeks post 0.25 mg/kg Mon/Wed/Fri, concurrent oral medications
[14] = 0.25 mg/kg sc Mon/Wed/Fri for 3 weeks, 1 h post-injection
[15] = single 1 mg/kg sc, first order absorption two compartments
[16] = single 1 mg/kg sc, non-compartmental

For CCCCOCC[n+]1ccccc1-c1c2nc(c(-c3cccc[n+]3CCOCCCC)c3ccc([n-]3)c(-c3cccc[n+]3CCOCCCC)c3nc(c(-c4cccc[n+]4CCOCCCC)c4ccc1[n-]4)C=C3)C=C2.[Mn+3] [MnBuOE, Mn(III) meso-tetrakis (N-n-butoxyetylpyridium-2-yl) porphyrin], the Cmax [1] is given as 1600 nM, the “heart rate following injection” value (normal dogs [2]; 0.25 mg/kg sc) is given as 104–116 beats per minute and the “pulse 24 h post-injection” value (normal dogs [2]; 0.25 mg/kg sc) is given as “did not alter pulse rate 24 h post-injection; also recorded: normalized by 24 h”. For the same molecule, the tachycardia grade (normal dogs [2]; 0.25 mg/kg sc) was “did not induce a clinical tachycardia; also recorded: mild increase in heart rate”, the “anaphylactic or local drug reactions” value (normal dogs [2]; 0.25 mg/kg sc with premedication) was “No anaphylactic or local drug reactions were observed” and the “local drug reaction at the injection site” value (normal dogs [2]; 0.5 mg/kg sc) was “No local drug reaction at the injection site was noted”. The “pulse 24 h post-injection” value (normal dogs [2]; 0.5 mg/kg sc) was “remained slightly increased”, the tachycardia grade (normal dogs [2]; 0.5 mg/kg sc) was “mild to moderate tachycardia” and the “average heart rate at peak” value (normal dogs [2]; 0.5 mg/kg sc, one dog) was 144 beats per minute. The anaphylactic reaction (normal dogs [2]; 0.5 mg/kg sc, one dog, pre-administration of diphenhydramine, famotidine, prednisone) was “did not occur”, the “blood pressure change with tachycardia” value (normal dogs [2]; 1 mg/kg sc) was “not associated with changes in blood pressure” and the “local drug reactions in the subcutaneous site of injection” value (normal dogs [2]; 1 mg/kg sc) was “occurred with two of the dogs”. For the same molecule, the persistence of tachycardia (normal dogs [2]; 1 mg/kg sc) was “at least 6 h”, the “pulse 24 h post-injection” value (normal dogs [2]; 1 mg/kg sc) was “remained increased compared to resting heart rates” and the tachycardia grade (normal dogs [2]; 1 mg/kg sc) was “severe sinus tachycardia”. The “average heart rate at peak” value (normal dogs [2]; 1 mg/kg sc) was 210 beats per minute, the “time to development of acute anaphylactic drug reaction” value (normal dogs [2]; 1 mg/kg sc, following injection) was 15 to 20 min and the acute drug reaction (normal dogs [2]; 1 mg/kg sc, no premedication) was “acute anaphylactic drug reaction; also recorded: induced an anaphylactic drug reaction”. For the same molecule, the “maximum tolerated dose (MTD)” value (normal dogs [2]; sc, dogs, with premedication (anti-histamines, steroids)) was 0.25 mg/kg, the “indirect blood pressure after single dose” value (normal dogs [2]; single sc dose, Supplemental Fig. 2) was “subclinical fluctuations in recorded indirect blood pressures” and the Urinalysis (normal dogs [3]; 3 weeks post 0.25 mg/kg Mon/Wed/Fri) was “Alkaline urine (pH = 9) (n = 2/3)”. For the same molecule, the “Complete blood cell count” value (normal dogs [3]; 3 weeks post 0.25 mg/kg Mon/Wed/Fri, concurrent diphenhydramine, famotidine, prednisone) was “Stress leukogram (exogenous glucocorticoids) (n = 3/3)”, the “Chemistry panel: acid-base finding” value (normal dogs [3]; [13]) was “Slight to mild metabolic acidosis (increased anion gap)” and the “Chemistry panel: cholesterol finding” value (normal dogs [3]; [13]) was “Mild hypocholesterolemia”. For the same molecule, the “Chemistry panel: liver enzyme finding” value (normal dogs [3]; [13]) was “Mildly increased liver enzyme activity (ALP, ALT)”, the Chemistry panel (normal dogs [3]; 48 h post 0.25 mg/kg) was “No remarkable changes in serum biochemistries were seen; also recorded: Unremarkable” and the “Complete blood cell count” value (normal dogs [3]; 48 h post 0.25 mg/kg) was “Unremarkable”. The Urinalysis (normal dogs [3]; 48 h post 0.25 mg/kg, one dog analyzed) was “Alkaline urine (pH = 9) (n = 1/1)”, the Chemistry panel (normal dogs [3]; 48 h post 1 mg/kg) was “Unremarkable” and the “Complete blood cell count” value (normal dogs [3]; 48 h post 1 mg/kg) was “Unremarkable”. For the same molecule, the Urinalysis (normal dogs [3]; 48 h post 1 mg/kg) was “Alkaline urine (pH = 9) (n = 2/3)”, the mean anion gap (normal dogs [3]; final day of 3-week 0.25 mg/kg study, reference range 11.2–19.9) was 21.5 and the “mean ALT” value (normal dogs [3]; final day of 3-week 0.25 mg/kg study, reference range 12–54 IU/L) was 133 IU/L. For the same molecule, the “mean ALP” value (normal dogs [3]; final day of 3-week 0.25 mg/kg study, reference range 16–140 IU/L) was 203 IU/L, the mean cholesterol (normal dogs [3]; final day of 3-week 0.25 mg/kg study, reference range 124–344 mg/dL) was 96 mg/dL and the Cmax ([4]; 1 mg/kg, ref unpublished data) was 1000 nM. The Cmax ([4]; dose adjusted from 6 mg/kg) was roughly 300 nM, the “plasma MnBuOE concentration following the initial dose” value [5, 14] was 1.4 µM and the “plasma MnBuOE concentration plateau with subsequent doses” value [5, 14] was 0.85 to 1.1 µM. The trough plasma levels ([5]; 0.25 mg/kg sc Mon/Wed/Fri, just prior to injection) was “very low”, the “accumulation of the drug in plasma” value ([5]; 0.25 mg/kg sc Mon/Wed/Fri, long-term treatment) was “no accumulation of the drug in plasma was observed; also recorded: no accumulation observed over time” and the “Characteristics of lesion, kidney” value (normal dogs [6]; necropsy) was “Acute, multifocal, mild Acute multifocal, moderate”. For the same molecule, the “Characteristics of lesion, liver” value (normal dogs [6]; necropsy) was “Marked, multifocal to diffuse, random Marked, multifocal to diffuse, centrilobular to random Marked, diffuse, panlobular, random”, the “Characteristics of lesion, lung” value (normal dogs [6]; necropsy) was “Multifocal, mild, neutrophilic, sterile Multifocal, moderate, neutrophilic sterile” and the “Characteristics of lesion, subcutaneous adipose” value (normal dogs [6]; necropsy) was “Multifocal, mild”. The “Histopathologic appearance, lymph nodes” value (normal dogs [6]; necropsy) was “mildly reactive”, the “Incidence of diagnosis, kidney” value (normal dogs [6]; necropsy) was “n = 3/3” and the “Incidence of diagnosis, liver” value (normal dogs [6]; necropsy) was “n = 3/3”. For the same molecule, the “Incidence of diagnosis, lung” value (normal dogs [6]; necropsy) was “n = 3/3”, the “Incidence of diagnosis, subcutaneous adipose” value (normal dogs [6]; necropsy) was “n = 3/3” and the “Histopathologic diagnosis, kidney” value (normal dogs [6]; necropsy 48 h after last dose) was “acute, mild to moderate tubular degeneration and necrosis of the kidney”. For the same molecule, the “Histopathologic diagnosis, liver” value (normal dogs [6]; necropsy 48 h after last dose) was “marked hydropic degeneration of the liver”, the “Histopathologic diagnosis, lung” value (normal dogs [6]; necropsy 48 h after last dose) was “mild to moderate sterile bronchointerstitial/interstitial pneumonia” and the “Histopathologic diagnosis, subcutaneous adipose (injection site)” value (normal dogs [6]; necropsy 48 h after last dose) was “mild necrosupporative/granulomatous inflammation; also recorded: Necrosuppurative/granulomatous steatitis”. For the same molecule, the “no adverse effects level (NOAEL), loading dose” value (nonhuman primates) was 6 mg/kg, the “no adverse effects level (NOAEL), maintenance dose” value (nonhuman primates) was 2 mg/kg and the “no adverse effects level (NOAEL), loading dose” value (mice) was 12 mg/kg. For the same molecule, the “no adverse effects level (NOAEL), maintenance dose” value (mice) was 2 mg/kg, the “plasma half-life t 1/2, primary elimination from central compartment” value ([7]; single 1 mg/kg sc, 6 to 48 h) was 7 h and the Cmax ([7]; single 1 mg/kg sc, 30 min post-injection, 1 mg/kg, read-out: peak plasma concentration (C max), mean) was 3990 nM and 4000 nM. For the same molecule, the “estimated terminal half-life (secondary processes)” value ([7]; single 1 mg/kg sc, 48 h to 14 days) was 480 h, the “MnBuOE remaining in plasma” value ([7]; single 1 mg/kg sc, at 48 h) was 1% and the “time of peak plasma drug concentration (T max)” value ([7]; single 1 mg/kg sc, post-injection) was 0.5 h. It also gave an AUCinfinite [7, 15] of 42.52, a C max [7, 15] of 4830 ng/mL and a CL/F [7, 15] of 0.02 L/h/kg body weight. The “V/F (4–48 h process)” value [7, 15] was 0.14 L/kg body weight, the “t 1/2 (4–48 h)” value [7, 15] was 6.64 h and the t max ([7]; single 1 mg/kg sc, first order absorption two compartments, averaged profile 0–48 h) was 0.46 h. The “AUC0–48h” value [7, 16] was 52.09, the AUCinfinite [7, 16] was 57.82 and the C max [7, 16] was 5000 ng/mL. The CL/F [7, 16] was 0.020 L/h/kg body weight, the “V/F (4–48 h process)” value [7, 16] was 0.21 L/kg body weight and the “V/F (7–14 day process)” value [7, 16] was 13.42 L/kg body weight. The “t 1/2 (4–48 h)” value [7, 16] was 7.13 h, the “t 1/2 (7–14 day)” value [7, 16] was 509.8 h and the t max ([7]; single 1 mg/kg sc, non-compartmental (WinNonlin), individual dogs) was 0.5 h. The “drug eliminated from the plasma” value ([7]; single-dose 14-day PK study, after 48 h) was 99%, the Cmax [8] was 1000 nM and the “heart rate 1 h after each injection” value (normal dogs [9]) was “Mildly to moderately increased heart rate”. For the same molecule, the “baseline pulse prior to injection” value (normal dogs [9]; multiple doses) was “not altered”.
For CC[n+]1ccccc1-c1c2nc(c(-c3cccc[n+]3CC)c3ccc([n-]3)c(-c3cccc[n+]3CC)c3nc(c(-c4cccc[n+]4CC)c4ccc1[n-]4)C=C3)C=C2.[Mn+3] [MnTE-2-PyP5+], the “effect on chemotherapeutic response” value [10] is given as “enhanced the chemotherapeutic response”, the “effect on chemotherapeutic response” value [11] is given as “enhanced the chemotherapeutic response” and the “tissue accumulation, tumor compared to normal tissue” value [12] is given as “accumulates preferentially in tumor tissue compared to normal tissue”.
